# Experimental data reported in patent publication US20260287577A1, “APPLICATIONS OF HEPATOCYTE CO-CULTURE SYSTEM” (LifeNet Health, priority 2023, published 2026).
# Tests used:
# Format in all cases: cell-based, human
# [1] = test system: co-cultured cells at a 1:2 Kupffer cell to hepatocyte ratio; assay: Cell morphology imaging, Example 10; details: 24 hours of exposure
# Experimental: (§1) A 24-well plate, all-human cell-based triculture system (hTCS) that includes cryopreserved primary human feeder cells (FCs) and primary human hepatocytes (PHHs) and KC were used. The ratios of hepocytes: KC of 1:4 and 1:2 were used. The cells were exposed to TGF-β (10 ng/ml), with NO DEX in the media. During exposure, the above genes were followed. The workflow was the same as described in Example 9.
# [2] = test system: hTCS with KC; assay: Urea production, Example 10; details: 10 ng/ml, between 6 and 96 h
# Experimental: as §1
# (§2) Exposure times were measured at 2, 6, 24, and 96 hours. The gene expressions SMAD-7, LOX, MMP1, LGALS3, UCHL1, HSP90B1, MMP14, PPAR-λ(gamma)) and two housekeeping genes; β-Actin (duplexed) and GAPDH were measured. Cell Health was evaluated by measuring lactate dehydrogenase (LDH), and urea production at all time points.
# [3] = test system: genes known to have a role in fibrogenic responses (e.g., LGALS3, LOX, MMP1); assay: Fibrogenic response gene expression overall, Example 9
# Experimental: (§3) Methods: The hepatic tri-culture system, including adult primary human hepatocytes (PHHs), endothelial cells and stromal cells, was cultured with and without primary KCs, at a ratio of 1 KC:4 PHH or 1 KC:2 PHH, in a glucocorticoid-containing or -free media. […] MTX or TGF-β1 or […] (LPS) cause hepatic injury. The injury leads to lipid accumulation, lipotoxicity and cytokines are produced. These activate the KCs and the liver sinusoidal endothelial cells (LSEC). Then stromal activation and gene expressions occur, leading to liver fibrosis.
# (§4) Following exposure to methotrexate (MTX; 0.1 and 1 μM; Sigma-Aldrich, St. Louis, MO) or TGF-β1 (0.1 and 10 ng/ml; Miltenyi Biotec, Gaithersburg, MD) or vehicle (DMSO; 0.1% v/v), the expression of various genes known to have a role in fibrogenic responses (e.g., LGALS3, LOX, MMP1) was determined. MTX and TGF-β1 are known fibrogenic compounds Cell health was assessed by urea production and LDH release in the medium.
# (§5) The experiments were done in a 96-well format according to the details shown below. […] The hepatocytes were from an individual adult lot. The Kupffer cells (KCs) were from an individual adult lot. The seeding density of the Kupffer cells to the hepatocytes was selected to mimic healthy or inflammatory physiological levels (1:4 or 1:2 ratio). The seeding of the KCs occurred on Day 1 of the culture (meaning 24 hours post-hepatocyte plating).
# (§6) All hepatocyte plating was performed using TCPM with Dex (1 μM), as above. Four hours after hepatocyte plating, TCCM was added with and without Dex (half of the cultures with Dex, half without.) The media used were those as described above. The medium exchange process was to do 50% media changes following KC plating up until the compound addition.
# Thawing and plating of the hepatocytes was done according to methods as known in the art. The next day (24 hours) after plating the cells, the KCs were added in TCCM with or without Dex (0.1 μM) at a 1:4 or 1:2 ratio to hepatocytes. […]
# The cell harvest and analytical endpoints were done as follows. […] The treatment samples were analyzed in triplicate. […]
# [4] = test system: hTCS with KC; assay: LDH cytotoxicity, Example 10; details: 10 ng/ml, presence of Kupffer cells, after 96 hours of exposure
# Experimental: as §1, §2
# [5] = test system: SMAD-7, LOX, MMP1, LGALS3, UCHL1, HSP90B1, MMP14, PPAR-λ(gamma); assay: Gene expression time course after TGF-β exposure, Example 10; details: 10 ng/ml, no DEX
# Experimental: as §1
# The cells were exposed to 10 ng/ml TGF-β.
# as §2
# [6] = test system: hepatic tri-cultures; assay: Cell health (morphology, urea production, LDH release), Example 9; details: TGF-β1 10 ng/ml, exposure up to 120 hr
# Experimental: as §4
# (§7) The cell harvest and analytical endpoints were done as follows. Phase contrast images were captured each day. The media samples were collected for lactate dehydrogenase (LDH) assay at the end of each treatment period (i.e., 72 or 120 hours of treatment with each compound). The results were used to assess cell health. Cell lysates were harvested for gene expression analysis. 2 wells were combined per sample. The treatment samples were analyzed in triplicate. The following genes that have a role in fibrogenic response were observed. LGALS3 (Galectin3); LOX (lysyl oxidase), MMP1 (matrix Metalloproteinase 1); Housekeeping gene (β-actin). The images in FIGS. 44 and 45 are at 200×.
# [7] = test system: MMP1 (matrix Metalloproteinase 1); assay: cells
# Experimental: as §3, §4, §5, §6
# (§8) Thawing and plating of the hepatocytes was done according to methods as known in the art. The next day (24 hours) after plating the cells, the KCs were added in TCCM with or without Dex (0.1 μM) at a 1:4 or 1:2 ratio to hepatocytes. The next day and subsequent days, 50% volume of medium was changed each day. Starting at day 5 of culture, the compounds tested were added in the 50% medium volume and allowed to go, unchanged, through Day 8 of culture (72 hr treatment); or to 120 hr treatment times. The treatment compounds were methotrexate (0.1 and 1.0 μM) and TGF-β1 (0.1 and 10 ng/ml).
# as §7
# [8] = test system: LGALS3 (Galectin3); assay: cells
# Experimental: as §3, §4, §5, §6, §8, §7
# [9] = test system: LOX (lysyl oxidase); assay: cells
# Experimental: as §3, §4, §5, §6, §8, §7
# [10] = 72 hours, with Dex, No KC, TGF-β1 0.1 ng/mL
# [11] = 72 hours, with Dex, with KCs, TGF-β1 0.1 ng/mL
# [12] = 72 hours, with Dex, with KCs, TGF-β1 10 ng/mL
# [13] = 72 hours, without Dex, No KC, TGF-β1 0.1 ng/mL
# [14] = 72 hours, without Dex, No KC, TGF-β1 10 ng/mL
# [15] = 72 hours, without Dex, with KCs, TGF-β1 0.1 ng/mL
# [16] = 72 hours, without Dex, with KCs, TGF-β1 10 ng/mL
# [17] = 120 hours, with Dex, No KC, TGF-β1 0.1 ng/mL
# [18] = 120 hours, with Dex, No KC, TGF-β1 10 ng/mL
# [19] = 120 hours, with Dex, with KCs, TGF-β1 0.1 ng/mL
# [20] = 120 hours, with Dex, with KCs, TGF-β1 10 ng/mL
# [21] = 120 hours, without Dex, No KC, TGF-β1 0.1 ng/mL
# [22] = 120 hours, without Dex, No KC, TGF-β1 10 ng/mL
# [23] = 120 hours, without Dex, with KCs, TGF-β1 0.1 ng/mL
# [24] = 120 hours, without Dex, with KCs, TGF-β1 10 ng/mL
substance,measurement,setting,value
"TGF-β1: transforming growth factor-β1, pro-fibrogenic cytokine used as fibrogenic reference compound",cell appearance,[1],the cells appear healthy
same,urea production rate compared to vehicle alone,[2],a decrease in the production rate
same,culture conditions in which effects on fibrogenic genes were observed,"[3]; DEX / no DEX, with / without KCs","observed in both DEX and no DEX treated groups, with or without KCs"
same,gene expression,[3]; TGF-β1 0.1 ng/ml,did not affect gene expression
same,cytotoxicity based on LDH production,[4],cytotoxicity of the co-cultured cells was low
same,gene expression,"[5]; 24 hours of exposure, 1:2 and 1:4 ratios",multiple positive signals for gene expression
same,gene expression compared to the controls,"[5]; 96 hours exposure, almost all genes, ratios 1:4 and 1:2 Kupffer cells to hepatocytes",reduced gene expression
same,"cell stress (hepatocellular morphology, urea production, LDH release)",[6],exhibited signs of cell stress
same,MMP1 fold induction Mean,[7]; [10],0.9 fold
same,MMP1 fold induction Mean,[7]; [11],1.0 fold
same,MMP1 fold induction Mean,[7]; [12],1.3 fold
same,MMP1 fold induction Mean,[7]; [13],1.0 fold
same,MMP1 fold induction Mean,[7]; [14],1.2 fold
same,MMP1 fold induction Mean,[7]; [15],1.1 fold
same,MMP1 fold induction Mean,[7]; [16],1.2 fold
same,MMP1 fold induction Mean,[7]; [17],1.2 fold
same,MMP1 fold induction Mean,[7]; [18],1.1 fold
same,MMP1 fold induction Mean,[7]; [19],1.2 fold
same,MMP1 fold induction Mean,[7]; [20],0.1 fold
same,MMP1 fold induction Mean,[7]; [21],1.0 fold
same,MMP1 fold induction Mean,[7]; [22],1.1 fold
same,MMP1 fold induction Mean,[7]; [23],1.1 fold
same,MMP1 fold induction Mean,[7]; [24],1.7 fold
same,MMP1 gene expression,"[7]; TGF-β1 10 ng/ml, presence of KCs",increased MMP1 in a time-dependent manner
same,LGALS3 fold induction Mean,[8]; [10],1.1 fold
same,LGALS3 fold induction Mean,"[8]; 72 hours, with Dex, No KC, TGF-β1 10 ng/mL",0.8 fold
same,LGALS3 fold induction Mean,[8]; [11],0.9 fold
same,LGALS3 fold induction Mean,[8]; [12],0.8 fold
same,LGALS3 fold induction Mean,[8]; [13],1.2 fold
same,LGALS3 fold induction Mean,[8]; [14],0.5 fold
same,LGALS3 fold induction Mean,[8]; [15],1.1 fold
same,LGALS3 fold induction Mean,[8]; [16],0.8 fold
same,LGALS3 fold induction Mean,[8]; [17],1.0 fold
same,LGALS3 fold induction Mean,[8]; [18],0.8 fold
same,LGALS3 fold induction Mean,[8]; [19],0.8 fold
same,LGALS3 fold induction Mean,[8]; [20],0.8 fold
same,LGALS3 fold induction Mean,[8]; [21],1.0 fold
same,LGALS3 fold induction Mean,[8]; [22],0.4 fold
same,LGALS3 fold induction Mean,[8]; [23],1.1 fold
same,LGALS3 fold induction Mean,[8]; [24],0.6 fold
same,LOX fold induction Mean,[9]; [10],1.1 fold
same,LOX fold induction Mean,[9]; [11],1.0 fold
same,LOX fold induction Mean,[9]; [12],1.2 fold
same,LOX fold induction Mean,[9]; [13],1.2 fold
same,LOX fold induction Mean,[9]; [14],1.3 fold
same,LOX fold induction Mean,[9]; [15],1.1 fold
same,LOX fold induction Mean,[9]; [16],1.6 fold
same,LOX fold induction Mean,[9]; [17],0.9 fold
same,LOX fold induction Mean,[9]; [18],1.7 fold
same,LOX fold induction Mean,[9]; [19],1.0 fold
same,LOX fold induction Mean,[9]; [20],1.6 fold
same,LOX fold induction Mean,[9]; [21],1.2 fold
same,LOX fold induction Mean,[9]; [22],2.2 fold
same,LOX fold induction Mean,[9]; [23],1.2 fold
same,LOX fold induction Mean,[9]; [24],2.0 fold
